Results as given in ChEMBL document CHEMBL5604062, “ASAP - ZIKV NS2B-NS3 protease fluorescence dose response” (2024).
Several values for one entry are separate records, joined by “and”; a condition that tells them apart may be missing. Identical values can stand only once.

These compounds were tested against Nonstructural protein 3 (Zika virus, UniProt A0A024AXB9) (assay: Functional biochemical assay to identify treatments for viral infectious disease that targets Zika NS2B-NS3 protease. Utilizing a direct enzyme activity measurement method, reading the fluorescence intensity is used to characterize the relative potency of inhibitors as IC50.).
Chain of Nonstructural protein 3 (A0A024AXB9 whole entry): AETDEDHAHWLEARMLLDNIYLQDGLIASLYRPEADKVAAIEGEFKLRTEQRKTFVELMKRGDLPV
Parameters: species or system PRVABC59

SMILES	IC50
Cc1ccc(Oc2ncccc2C#N)c(-c2ccc3[nH]c(C(=O)O)cc3c2)c1	> 99.5 µM
CNC(=O)c1cc(C#N)ccc1NS(=O)(=O)c1ccc(Oc2ccccc2Cl)cc1	> 99.5 µM
NC[C@H]1C[C@](F)(CNC(=O)c2cc(Cl)cc(NC(=O)OCc3ccccc3)c2)C1	67 µM
N#Cc1ccc(C(=O)Nc2ccc3c(c2)CNC3)cc1Cl	11.4 µM
Cn1c(C2CC2)cc(C(=O)Nc2cc(-c3cccnc3)ccn2)c1C1CC1	> 25 µM
O=C(O)C[C@H](NC(=O)OCc1ccccc1)c1ccc(OCc2ccccc2)c(Br)c1	> 99.5 µM
CC[C@H](Cc1nnn[nH]1)c1ccc(NC(=O)c2cc(Cl)cc(Cl)c2OC)cc1	> 99.5 µM
Cc1nccn1-c1ccc(Cl)cc1C(=O)Nc1cccc(CN)c1	> 99.5 µM
Cc1cc(N2CCC(NS(=O)(=O)c3ccc(Cl)cc3C(=O)O)CC2)nc(C)n1	> 99.5 µM
N#Cc1cc(CN)cc(NC(=O)c2cc(Cl)cc(NC(=O)OCc3ccccc3)c2)c1	10.7 µM
Cc1cccc(-c2ccc([C@@H](NC(=O)OCc3ccccc3)C(=O)Nc3cccc(CN)c3)cc2)c1	7.4 µM
O=C(Nc1cc([C@H]2CCOC2)ccn1)c1ccc2scnc2c1	> 25 µM
CCOC(=O)c1ncoc1CNC(=O)[C@H](Nc1ccc2c(c1)CNC2)c1cc(Cl)cc(C2CC2)c1	0.297 µM
Cn1cc(CCc2nc3c(C(=O)Nc4ccc5c(c4)CNC5)cc(Cl)cc3[nH]2)cn1	0.156 µM
NCCC1(C(=O)Nc2ccc3c(c2)C(=O)OC3)CCCC1	> 25 µM
COc1ccc(NS(=O)(=O)c2ccc(Cl)cc2C(=O)O)cc1S(=O)(=O)N1CCCC1	> 99.5 µM
O=C(Nc1ccc2c(c1)CNC2)c1cc(Cl)ccc1OCC(F)(F)F	2.77 µM
CCCNC(=O)Cn1ccnc(N2CC[C@H](CO)C2)c1=O	> 99.5 µM
Cn1cc2c(C(=O)Nc3ccc4c(c3)CNC4)cc(F)cc2n1	0.107 µM
CNC(=O)c1cc(Cl)ccc1NS(=O)(=O)c1ccc(Oc2ccccc2Cl)cc1	> 99.5 µM

SMILES	IC50
N#Cc1cc(Cl)cc(C(=O)Nc2ccc3c(c2)CNC3)c1	0.276 µM
CSCCCNC(=O)[C@H](Nc1ccc2c(c1)CNC2)c1cc(Cl)cc(C2CC2)c1	0.126 µM
O=C(O)CCc1ccc(NC(=O)c2cc(Cl)cc(NC(=O)OCc3ccccc3)c2)cc1	> 99.5 µM
COc1c(Cl)cc(Cl)cc1C(=O)Nc1cccc(CN)c1	13.9 µM
Cc1cc(CN)cc(NC(=O)c2cc(C3CC3)n(C)c2C)c1	> 99.5 µM
CCn1ccnc(N2CC[C@H](c3ccncc3)C2)c1=O	> 99.5 µM
CCn1c(=O)c(N2CC[C@H](CO)C2)nc2ccc(C(N)=O)cc21	> 99.5 µM
NCc1cccc(NC(=O)[C@@H](NC(=O)OCc2ccccc2)c2ccc(OCC3CCOCC3)cc2)c1	95.5 µM
NCCc1ccc(NC(=O)c2cc(Cl)cc(NC(=O)OCc3ccccc3)c2)cc1	10.7 µM
O=C(N[C@@H](C(=O)NCc1ccccn1)c1ccc(OCc2ccccc2)cc1)OCc1ccccc1	> 99.5 µM
NC[C@H]1C[C@@H](NC(=O)[C@@H](NC(=O)OCc2ccccc2)c2ccc(OCc3ccccc3)cc2)C1	85.2 µM
CNC(=O)c1cccc(C(=O)Nc2ccc3c(c2)CNC3)c1	0.87 µM
CCCNC(=O)[C@H](Nc1cccc(-c2nn[nH]n2)c1)c1cc(Cl)cc(NC(=O)OCc2ccccc2)c1	48.5 µM
Cc1nccn1-c1ccc(NS(=O)(=O)c2ccc(Cl)cc2C(=O)O)cc1F	> 99.5 µM
O=C(O)CCCn1cnc(-c2cc(Cl)cc(NC(=O)OCc3ccccc3)c2)n1	> 99.5 µM
Cc1c(C(=O)Nc2cccc(-n3nn[nH]c3=O)c2)cc(C2CC2)n1C	> 99.5 µM
Cc1nccn1CCOc1cccc([C@H](NC(=O)OCc2ccccc2)C(=O)Nc2cccc(CN)c2)c1	> 99.5 µM
O=C(O)c1cc(Cl)ccc1S(=O)(=O)Nc1ccc(Oc2ccccc2Cl)cc1	48 µM
CNC(=O)C(=O)/C=C/c1ccccc1	> 198 µM

Second part, the compound after the results:

IC50	SMILES
> 25 µM	c1cc([C@@H]2C[C@H]2c2ccc3c(c2)CNC3)c2cn[nH]c2c1
0.129 µM	O=C(Nc1ccc2c(c1)CNC2)c1cccc2[nH]ncc12
> 99.5 µM	O=C(Nc1cc(Cl)cc(C(=O)Nc2nccc([C@H]3CCCCN3)n2)c1)OCc1ccccc1
> 25 µM	O=C1OCc2ccc(NC(=O)c3cc(F)cc4c3CCNC4)cc21
> 99.5 µM	Clc1ccc2[nH]cc(Cc3cccc(-c4nn[nH]n4)c3)c2c1
0.797 µM and 1.06 µM	O=C(Nc1ccc2c(c1)CNC2)c1ccc2[nH]cc(C3CCNCC3)c2c1
> 99.5 µM	NCc1cccc(NC(=O)[C@@H]2CCC[C@H](NC(=O)OCc3ccccc3)C2)c1
> 99.5 µM	Clc1cc([C@@H]2C[C@H]2c2cccc(-c3nn[nH]n3)c2)c2cn[nH]c2c1
> 99.5 µM	COc1ncc(C(=O)Nc2cccc(CN)c2)cc1NC(=O)OCc1ccccc1
3.4 µM	O=C(Nc1cc(Cl)cc(C(=O)Nc2ccc3c(c2)CNCC3)c1)OCc1ccccc1
> 99.5 µM	NCc1cccc(NC(=O)[C@H](NC(=O)OCc2ccccc2)C2CCCCC2)c1
> 99.5 µM	COC(=O)Cc1ccccc1-c1ccc(S(=O)(=O)Nc2ccc(Cl)cc2C(=O)O)cc1
52.4 µM	CC[C@H](Cc1nnn[nH]1)c1ccc(NC(=O)[C@H]2[C@H]3CCCCC[C@H]3[C@H]2NC(=O)OCc2ccccc2)cc1
> 99.5 µM	Cc1cc(-c2ccc3[nH]c(C(=O)O)cc3c2)c2cc[nH]c(=O)c2c1
> 99.5 µM	CCn1c(=O)c(N2CCC[C@H]2c2noc(C)n2)nc2ccccc21
> 99.5 µM	CN(Cc1cccnc1)Cc1c[nH]c2ccccc12
7.28 µM	NC1CCN(c2ccc(NC(=O)c3cc(Cl)cc(NC(=O)OCc4ccccc4)c3)cc2)CC1
> 99.5 µM	c1ccc2sc(C3CCN([C@H]4Cc5[nH]c6ccccc6c5C4)CC3)nc2c1
> 99.5 µM	CCc1ncc(CN2CCC(c3nc4ccccc4s3)CC2)[nH]1

IC50	SMILES
> 25 µM	O=C(Nc1cc(-c2cccnc2)ccn1)c1cc2n(c1)CCC2
68.3 µM	O=C(Nc1cc(Cl)cc(C(=O)NCc2ccc(-c3nnn[nH]3)cc2)c1)OCc1ccccc1
22.4 µM	N#C[C@H](Nc1ccc2c(c1)CNC2)c1cccc2c1CCNC2=O
> 99.5 µM	NCc1cccc(NC(=O)c2ccc(=O)n(Cc3ccccc3Cl)c2)c1
> 25 µM	O=C(Nc1ccc2c(c1)CNC2)C1(c2ccc(Cl)cc2)CCCC1
5.26 µM	Clc1cccc([C@H](C#Cc2ccccc2)Nc2ccc3c(c2)CNC3)c1
> 99.5 µM	CCCN1C(=O)[C@](C#N)(Nc2cccc(-c3nn[nH]n3)c2)c2cc(Cl)ccc21
> 99.5 µM	CN1CCc2nc(NC(=O)[C@@H](NC(=O)OCc3ccccc3)c3ccc(OCc4ccccc4)cc3)sc2C1
3.05 µM	Cc1cc(CN)cc(NC(=O)c2cccc3c2CC(=O)N3)c1
> 99.5 µM	CN(C)Cc1ccc(N2CCN(Cc3c[nH]c4ccccc34)CC2)nc1
> 99.5 µM	NCc1cccnc1NS(=O)(=O)c1ccc(Oc2ccccc2Cl)cc1
69.8 µM	O=C1COc2c(cccc2N2CCN(Cc3c[nH]c4ccccc34)CC2)N1
> 99.5 µM	NCc1cccc(NC(=O)[C@]2(NC(=O)OCc3ccccc3)COc3cc(Br)ccc32)c1
> 99.5 µM	CCn1c(=O)c(N2C[C@@H]3C[C@]3(CO)C2)nc2ccccc21
> 99.5 µM	CCc1cc(C(=O)Nc2cccc(-c3nnn[nH]3)c2)ccc1Cl
0.215 µM	O=C(Nc1ccc2c(c1)CNC2)c1cc(F)cc(-c2ccncc2)c1
> 99.5 µM	Cc1nnsc1CN1CCC([C@@H](NC(=O)OCc2ccccc2)C(=O)Nc2cccc(CN)c2)CC1
68.5 µM	Cc1cc(C(=O)O)c(NS(=O)(=O)c2ccc(Oc3ccccc3)cc2)cc1F
